# Test results from patent US5574026A, “Methods for inhibiting angiogenesis proliferation of endothelial or tumor cells and tumor growth” (American Cyanamid Company, priority 1994, dated 1996).
# Entries after “also recorded” stand apart in the source; their conditions may differ. Where a name gives a salt, the structure may show the parent alone.
# What was measured:
# [1] = tested on: SW620; test: Antiproliferative activity in human tumor cell lines, PROTOCOL 1 and PROTOCOL 2; type: cell-based; conditions: SW-620, colon tumor cell line SW620, 48 hours, read-out: IC50
# Procedure: (§1) The antiproliferative activity of the compounds of Formula I in an Adult Bovine Aortic Endothelial (ABAE) cell line and in Human Tumor cells lines is evaluated in three similar assays that measure growth inhibition. The assays are identified as follows:
# (§2) PROTOCOLS 1, 2, and 3 are described in greater detail hereinbelow. In general, according to PROTOCOLS 1 and 2, the target ABAE and/or Human Tumor cells are exposed to the compounds of Formula I for 48 hours. PROTOCOL 3 exposes ABAE cells to the compounds for 4 days. A detailed description of the Protocols is as follows:
# (§3) Antiproliferative Activity in Human Tumor Cell Lines
# (§4) The antiproliferative activity of the compounds of Formula I of the present invention is evaluated in a panel comprised of human tumor cell lines. The human tumor cell lines are from
# (§5) 2) Colon tumors: MIP, CACO2, and SW620.
# (§6) All cell lines are maintained in log phase in RPMI 1640 media, supplemented with 5% fetal calf serum, penicillin/streptomycin and 2 mM L-glutamine. Cultures are renewed after 20 passages with cells from a fresh stock of batch-frozen early passage cells. Cell lines are routinely checked for mycoplasma contamination (Genprobe). In a laminar flow hood, cells (1-5×10^4) are plated into 96-well microtiter plates in a volume of 0.1 ml/well with a bulk microtiter dispenser (Denley). […] At this concentration, dimethylsulfoxide has no effect on cell growth. Compounds are added using a Tomtec dispenser which simultaneously dispenses from one 96-well plate, containing the drug dilutions, to the plates containing the cells. After two days of continuous drug exposure, 50% cold trichloroacetic acid (TCA) is added to 10% final concentration to fix the cells, and after 60 minutes at 4° C., the TCA is aspirated and the plates are washed 5 times with deionized water using a microtiter plate washer. The number of cells on the plate are quantitated using a protein dye-binding assay (Monks et al., 1991). A 0.4% solution of the dye, sulforhodamine B, in […] is added to the plates, and the plates are washed 5 times with 1% glacial acetic acid using the automatic plate washed. The bound stain is solubilized with 0.1 ml of 10 mMTris base. The optical densities are read from an automatic spectrophotometric plate reader (Dynatech) directly to a main frame computer (VAX 8600).
# (§7) Positive controls, that include standard chemotherapeutic drugs (i.e., adriamycin, cisplatin, etc.), are included in every experiment.
# (§8) Background optical density measurements (complete media--cells, and complete media+drug-cells) are automatically subtracted from the appropriate control and test wells. Mean values and standard errors are determined from duplicate wells. A measure is also made of the optical density at time when the drugs are added. The number of cells after treatment (P), as % of control, is calculated for every concentration of drug, as follows: [formula] wherein: T is optical density measurement for treated cells after 48 hours;
# (§9) C is optical density measurement for untreated cells after 48 hours;
# (§10) Co is optical density measurement for cells at the time of drug addition.
# (§11) IC50 of Growth inhibition is calculated from the sets of P values using the RS-1 data package (BBN Software).
# (§12) Antiproliferative Activity in Human Tumor and Adult Bovine Aortic Endothelial Cell Lines (ABAE)
# (§13) The antiproliferative activity of the compounds of Formula I is evaluated in a panel comprised of human tumor cell lines as listed in Protocol 1 as well as an adult bovine aortic endothelial cell line (ABAE). This assay is a modification of PROTOCOL 1. The modifications include:
# (§14) 1) each concentration for each compound is tested in a single well;
# (§15) 2) compounds are tested at 20, 4, 0.8, 0.16 microgram/ml and additionally in some experiments at 100 and 0.32 microgram/ml;
# (§16) 3) samples are pipetted into a 96-well plate for each of the cell lines by a Beckman Biomek 1000 SL robot; […]
# [2] = tested on: Human Tumor cell lines; test: Antiproliferative activity in panel of human tumor cell lines (average / panel as a whole), PROTOCOL 1 and PROTOCOL 2; type: cell-based; conditions: for IC50: Homo sapiens, average over the tumor cell lines tested
# Procedure: as §1, §2, §3, §4, §5, §6, §7, §8, §9, §10, §11, §12, §13, §14, §15, §16
# [3] = tested on: tumor; conditions: Teicher et al; used in conjunction with cancer chemotherapy or radiation therapy; cited from earlier work
# [4] = tested on: angiogenesis; conditions: Brem et al; in words; cited from earlier work
# [5] = tested on: Adult Bovine Aortic Endothelial (ABAE) cell line; test: Antiproliferative activity in Adult Bovine Aortic Endothelial (ABAE) cell line, PROTOCOL 3 (4 days, cell count); type: cell-based
# Procedure: as §1, §2
# Antiproliferative Activity in Adult Bovine Aortic Endothelial (ABAE) Cell Line
# ABAE cells are grown in DMEM media (Mediatech, Washington, D.C.) supplemented with 10% calf serum (Hyclone). ABAE cells are plated in 24-well dishes at 8,000 cells/well, followed by the addition of increasing concentrations of 7-halogen-9-[hydrogen or [(substituted glycyl)amido]]-6-demethyl-6-deoxytetracycline. After four days, the cells are detached and counted. […] The growth inhibition (I) as % of control is calculated as follows: [formula] wherein: Nc is the number of cells in untreated wells;
# Nt is the number of cells in treated wells;
# No is the number of plated cells.
# IC50 of growth inhibition is determined from the sets of I values plotted by Kaleidograph software (Abelbeck Software).
# Table 1 presents the results depicting the antiproliferative activity of the compounds of Formula I against an ABAE cell line, as evaluated by PROTOCOL 2 and PROTOCOL 3. The results are presented in terms of IC50 and are as follows.
Structure (SMILES),IC50 [1],IC50 [2],"inhibition of cell growth at the highest concentrations ([2]; FIG. 2, 6 human tumor cell lines, in words)",dead floating cells ([2]; even at the highest concentration),number of metastases with chemotherapy or radiation therapy [3],tumor growth with chemotherapy or radiation therapy [3],inhibition of angiogenesis [4],"IC50 ([5]; Bos taurus, 96 h, ABAE cells, PROTOCOL 3, 4 days, read-out: IC50 PROTOCOL 3)","activity upon incubation with cells ([5]; FIG. 1, 4 day assay (Protocol 3), in words)"
"CN(C)[C@@H]1C(O)=C(C(N)=O)C(=O)[C@@]2(O)C(O)=C3C(=O)c4c(O)ccc(I)c4CC3CC12 (stereo partly drawn) [Example 10, [4S-(4α,12aα)]-4-(Dimethylamino)-4,4,4a,5,5a,6,11,12a-octahydro-3,10,12,12a-tetrahydroxy-7-iodo-1,11-dioxo-2-naphthacenecarboxamide]",1.2 µg/mL,1.7 µg/mL,–,–,–,–,–,–,–
"CN(C)[C@@H]1C(O)=C(C(N)=O)C(=O)[C@@]2(O)C(O)=C3C(=O)c4c(O)ccc(Br)c4CC3CC12 (stereo partly drawn) [Example 8, [4S-(4α,12aα)]-7-Bromo-4-(dimethylamino)-1,4,4a,5,5a,-6,11,12a-octahydro-3,10,12,12a-tetrahydroxy-1,11-dioxo-2-naphthacenecarboxamide sulfate]",1.4 µg/mL,1.3 µg/mL,no 100% inhibition of cell growth,not observed,–,–,–,–,–
"CN(C)c1ccc(O)c2c1C[C@H]1C[C@H]3[C@H](N(C)C)C(O)=C(C(N)=O)C(=O)[C@@]3(O)C(O)=C1C2=O [Minocycline, reference compound]",–,–,–,–,the number of metastases is reduced,tumor growth is decreased,inhibits angiogenesis to an extent comparable to that of the combination therapy of heparin and cortisone; also recorded: useful as inhibitors of angiogenesis,≥ 50 µg/mL,losing its activity upon incubation with cells
